Test results as given in patent US20250282757A1, “ARYL ETHER-SUBSTITUTED HETEROCYCLIC COMPOUNDS AS GLP1R AGONISTS” (MINDRANK AI LTD., priority 2021, published 2025).
Like-named read-outs stand apart in the source and are kept apart here.

Columns and labels:
[1] = target: GLP-1R (Homo sapiens, UniProt P43220); test: Agonist activity on GLP-1R, HTRF cAMP detection in stably transfected GLP-1R/HEK293 cells; assay type: cell-based; conditions: for EC50: 30 min incubation; for Max activity: relative to top concentration of reference GLP-1(7-37)
[2] = Pharmacokinetic study in mice; assay type: in vivo, CD-1 mice; conditions: for F / clearance / AUC(0-inf) / half-life / Vd / Cmax: male CD-1 mice; for clearance rate compared with PF-06882961 / exposure compared with PF-06882961: mice; for clearance / AUC(0-inf) / half-life / Vd / Cmax: mouse, plasma; for AUC(0-inf): read-out: AUC0-inf; for half-life: read-out: T½ (converted); for Vd: read-out: Vdss; for Cmax: read-out: Cmax
Protocol: The pharmacokinetic properties of some compounds of the present invention were evaluated in mice pharmacokinetic experiments. SPF male CD-1 mice from Beijing Vital River Laboratory Animal Technology Co., Ltd were used with 6 mice in each group. Compounds were dissolved in 10% solutol/90% saline. A single intravenous administration was given at a dose of 1 mg/kg in a volume of 1 mL/kg. A single intragastric administration was given at a dose of 5 mg/kg in a volume of 1 mL/kg. Animals were fasted overnight prior to the administration and resumed feeding 4 hours after administration, ad libitum to water. Blood was collected at 0.0830, 0.25, 0.5, 1, 2, 4, 6, 8 and 24 hours after dosing. About […] of whole blood was collected from the saphenous vein of animals and placed in an EDTA-K2 anticoagulation tube. The samples were centrifuged at 4° C. and 4200 rpm for 5 min, and the plasma was transferred into a centrifuge tube and stored at −80° C. until analysis. For plasma sample analysis, the test compounds and internal standards (Labetalol & tolbutamide & Verapamil & dexamethasone & glyburide & Celecoxib) were extracted from mice plasma by protein precipitation method with acetonitrile, and the extracts were analyzed by LC/MS/MS. The measured plasma concentration-time data of individual animals were analyzed with the non-compartmental model of Phoenix WinNonlin 7.0 (Pharsight, USA) software, and the pharmacokinetic parameters of mice were obtained as follows: maximum (peak) plasma drug concentration Cmax; Peak time Tmax; half-life T1/2 and area under the plasma concentration-time curve extrapolated to infinity AUC0-inf.

Chain of GLP-1R (P43220 24-463): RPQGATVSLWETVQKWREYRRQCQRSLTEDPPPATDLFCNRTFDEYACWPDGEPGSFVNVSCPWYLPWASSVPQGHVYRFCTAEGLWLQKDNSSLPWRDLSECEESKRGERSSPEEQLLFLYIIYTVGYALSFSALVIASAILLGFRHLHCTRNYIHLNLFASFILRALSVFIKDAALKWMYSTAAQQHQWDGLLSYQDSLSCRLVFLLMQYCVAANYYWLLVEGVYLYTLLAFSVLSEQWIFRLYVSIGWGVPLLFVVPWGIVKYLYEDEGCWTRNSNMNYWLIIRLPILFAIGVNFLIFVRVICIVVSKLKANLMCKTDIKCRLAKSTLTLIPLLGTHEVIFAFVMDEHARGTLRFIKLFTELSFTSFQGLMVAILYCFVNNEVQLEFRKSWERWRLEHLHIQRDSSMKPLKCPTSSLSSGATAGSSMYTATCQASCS

| SMILES | EC50 [1] [nM] | Max activity [1] [%] | further results |
| --- | --- | --- | --- |
| O=C(O)c1cc(F)c2nc(CN3CCC(Oc4cccc(COc5ccc(Cl)cc5F)n4)CC3)n(C[C@@H]3CCO3)c2c1 [Compound C23, (S)-2-((4-((6-((4-chloro-2-fluorophenoxy)methyl)pyridin-2-yl)oxy)piperidin-1-yl)methyl)-4-fluoro-1-(oxetan-2-ylmethyl)-1H-benzo[d]imidazole-6-carboxylic acid] | 0.249 | 109.1 | F ([2]; 5 mg/kg po): 45.1%; clearance rate compared with PF-06882961 [2]: lower clearance rates; exposure compared with PF-06882961 [2]: higher exposure; clearance ([2]; 1 mg/kg iv): 0.9 L/h/kg; AUC(0-inf) ([2]; 1 mg/kg iv): 1.14 µg·h/mL; half-life ([2]; 1 mg/kg iv): 1 h; Vd ([2]; 1 mg/kg iv): 1 L/kg; AUC(0-inf) ([2]; 5 mg/kg po): 2.58 µg·h/mL; Cmax ([2]; 5 mg/kg po): 2.19 µg/mL; half-life ([2]; 5 mg/kg po): 1.4 h |
| N#Cc1ccc(OCc2cccc(OC3CCN(Cc4nc5c(F)cc(C(=O)O)cc5n4C[C@@H]4CCO4)CC3)n2)c(F)c1 [Compound 56, (S)-2-((4-((6-((4-cyano-2-fluorophenoxy)methyl)pyridin-2-yl)oxy)piperidin-1-yl)methyl)-4-fluoro-1-(oxetan-2-ylmethyl)-1H-benzo[d]imidazole-6-carboxylic acid] | 0.21 | 124.9 | F ([2]; 5 mg/kg po): 54.4%; clearance rate compared with PF-06882961 [2]: lower clearance rates; exposure compared with PF-06882961 [2]: higher exposure; clearance ([2]; 1 mg/kg iv): 1.3 L/h/kg; AUC(0-inf) ([2]; 1 mg/kg iv): 0.771 µg·h/mL; half-life ([2]; 1 mg/kg iv): 2.3 h; Vd ([2]; 1 mg/kg iv): 1.2 L/kg; AUC(0-inf) ([2]; 5 mg/kg po): 2.1 µg·h/mL; Cmax ([2]; 5 mg/kg po): 1.64 µg/mL; half-life ([2]; 5 mg/kg po): 1 h |
| N#CCC1(Cn2c(CN3CCC(Oc4cccc(COc5ccc(C#N)cc5F)n4)CC3)nc3ccc(C(=O)O)nc32)CC1 [Compound 138, 2-((4-((6-((4-cyano-2-fluorophenoxy)methyl)pyridin-2-yl)oxy)piperidin-1-yl)methyl)-3-((1-(cyanomethyl)cyclopropyl)methyl)-3H-imidazo[4,5-b]pyridine-5-carboxylic acid] | 0.669 | 125.0 |  |
| N#CCC1(Cn2c(CN3CCC(Oc4cccc(OCc5ccc(C#N)cc5F)n4)CC3)nc3c(F)cc(C(=O)O)cc32)CC1 [Compound S20] | 0.962 | 129.1 |  |
| CC1(Cn2c(CN3CCC(Oc4cccc(COc5ccc(C#N)cc5F)n4)CC3)nc3ccc(C(=O)O)cc32)COC1 [Compound C5, 2-((4-((6-((4-cyano-2-fluorophenoxy)methyl)pyridin-2-yl)oxy)piperidin-1-yl)methyl)-1-((3-methyloxetan-3-yl)methyl)-1H-benzo[d]imidazole-6-carboxylic acid] | 2.41 | 112.6 |  |
| CCn1cncc1Cn1c(Cc2ccc(Oc3cccc(COc4ccc(C#N)cc4F)n3)cc2)nc2ccc(C(=O)O)cc21 [Compound C28, 2-(4-((6-((4-cyano-2-fluorophenoxy)methyl)pyridin-2-yl)oxy)benzyl)-1-((1-ethyl-1H-imidazol-5-yl)methyl)-1H-benzo[d]imidazole-6-carboxylic acid] | 5.05 |  |  |
| CCn1cncc1Cn1c(CN2CCC(Oc3cccc(CSc4ccc(C#N)cc4F)n3)CC2)nc2ccc(C(=O)O)cc21 [Compound C12, 2-((4-((6-(((4-cyano-2-fluorophenyl)thio)methyl)pyridin-2-yl)oxy)piperidin-1-yl)methyl)-1-((1-ethyl-1H-imidazol-5-yl)methyl)-1H-benzo[d]imidazole-6-carboxylic acid] | 0.233 | 125.5 |  |
| N#Cc1ccc(OCc2cccc(COC3CCN(Cc4nc5ccc(C(=O)O)cc5n4C[C@@H]4CCO4)CC3)n2)c(F)c1 [Compound C1, (S)-2-((4-((6-((4-cyano-2-fluorophenoxy)methyl)pyridin-2-yl)methoxy)piperidin-1-yl)methyl)-1-(oxetan-2-ylmethyl)-1H-benzo[d]imidazole-6-carboxylic acid] | 1190 | 76.6 |  |
| CCN1C(=O)CCC1Cn1c(CN2CCC(Oc3cccc(COc4ccc(C#N)cc4F)n3)CC2)nc2ccc(C(=O)O)cc21 (stereo not drawn) [Compound C34, 2-((4-((6-((4-cyano-2-fluorophenoxy)methyl)pyridin-2-yl)oxy)piperidin-1-yl)methyl)-1-((1-ethyl-5-oxopyrrolidin-2-yl)methyl)-1H-benzo[d]imidazole-6-carboxylic acid] | 11 | 113.6 |  |
| CCn1cncc1Cn1c(Cc2ccc(Oc3cccc(COc4ccc(Cl)cc4F)n3)cc2)nc2ccc(C(=O)O)cc21 [Compound C24, 2-(4-((6-((4-chloro-2-fluorophenoxy)methyl)pyridin-2-yl)oxy)benzyl)-1-((1-ethyl-1H-imidazole-5-yl)methyl)-1H-benzo[d]imidazole-6-carboxylic acid] | 1.67 | 76.88 |  |
| N#CCC1(Cn2c(CN3CCC(Oc4ccc(F)c(COc5ccc(C#N)cc5F)n4)CC3)nc3ccc(C(=O)O)cc32)CC1 [Compound 135, 2-((4-((6-((4-cyano-2-fluorophenoxy)methyl)-5-fluoropyridin-2-yl)oxy)piperidin-1-yl)methyl)-1-((1-(cyanomethyl)cyclopropyl)methyl)-1H-benzo[d]imidazole-6-carboxylic acid] | 0.244 | 109.6 |  |
| N#CCC1(Cn2c(CN3CCC(Oc4cccc(COc5ccc(C#N)cc5F)n4)CC3)nc3c(F)cc(C(=O)O)cc32)CC1 [Compound 134, 2-((4-((6-((4-cyano-2-fluorophenoxy)methyl)pyridin-2-yl)oxy)piperidin-1-yl)methyl)-1-((1-(cyanomethyl)cyclopropyl)methyl)-4-fluoro-1H-benzimidazole-6-carboxylic acid] | 0.133 | 117.3 |  |
| CC(C)n1cncc1Cn1c(CN2CCC(Oc3cccc(COc4ccc(C#N)cc4F)n3)CC2)nc2ccc(C(=O)O)cc21 [Compound C31, 2-((4-((6-((4-cyano-2-fluorophenoxy)methyl)pyridin-2-yl)oxy)piperidin-1-yl)methyl)-1-((1-isopropyl-1H-imidazol-5-yl)methyl)-1H-benzo[d]imidazole-6-carboxylic acid] | 0.833 | 106.6 |  |
| CCn1cncc1Cn1c(CN2CCC(Oc3cccc(COc4ccc(C#N)cc4F)c3)CC2)nc2ccc(C(=O)O)cc21 [Compound 13, 2-((4-(3-((4-cyano-2-fluorophenoxy)methyl)phenoxy)piperidin-1-yl)methyl)-1-((1-ethyl-1H-imidazol-5-yl)methyl)-1H-benzo[d]imidazole-6-carboxylic acid] | 0.114 | 99.4 |  |
| N#Cc1ccc(SCc2cccc(OC3CCN(Cc4nc5ccc(C(=O)O)cc5n4C[C@@H]4CCO4)CC3)n2)c(F)c1 [Compound C10, (S)-2-((4-((6-((4-cyano-2-fluorophenylthio)methyl)pyridin-2-yl)oxy)piperidin-1-yl)methyl)-1-(oxetan-2-ylmethyl)-1H-benzo[d]imidazole-6-carboxylic acid] | 4.16 | 110.2 |  |
| N#Cc1ccc(OCc2nc(OC3CCN(Cc4nc5ccc(C(=O)O)cc5n4C[C@@H]4CCO4)CC3)ccc2F)c(F)c1 [Compound C83, (S)-2-((4-((6-((4-cyano-2-fluorophenoxy)methyl)-5-fluoropyridin-2-yl)oxy)piperidin-1-yl)methyl)-1-(oxetan-2-ylmethyl)-1H-benzo[d]imidazole-6-carboxylic acid] | 0.705 | 111.1 |  |
